Assay results taken from patent US7781591B2, “Substituted 3-cyanopyridines as protein kinase inhibitors” (Wyeth LLC, priority 2006, dated 2010).

What was measured:
Type in all cases: biochemical
[1] = target: T1, purified recombinant active kinase domain of full length PKC theta (amino acids 362-706) (Homo sapiens, UniProt Q04759); assay: Radioactive kinase assay for inhibition of the active kinase domain (KD) of PKCθ; settings: active kinase domain of PKC theta (amino acids 362-706), average value, read-out: IC50 PKCθKD
T1 construct: active kinase domain of full length PKC theta (amino acids 362-706)
Protocol: A Radioactive Kinase Assay for Inhibition of the Active Kinase Domain (KD) of PKCθ
(§1) This assay is based on the phosphorylation of a biotinylated substrate by a kinase utilizing radiolabeled ATP (ATP γ P33). The substrate was a biotinylated peptide with a sequence of biotin-[…]-C(O)NH2. The enzyme was purified recombinant active kinase domain of full length PKC theta (amino acids 362-706). The assay buffer was composed of 100 mM Hepes, pH7.5, 2 mM MgCl2, 20 mM β-glycerophosphate and 0.008% TritonX 100. A reaction mixture of ATP, ATP γ P33 (PerkinElmer), DTT, and the enzyme was prepared in the assay buffer and added to a 96-well polypropylene plate. The compound (diluted in DMSO in a separate 96-well polypropylene plate) was added to the reaction mixture and incubated at room temperature. Following the incubation, the peptide substrate was added to the reaction mixture to initiate the enzymatic reaction. The reaction was terminated with the addition of a stop solution (100 mM EDTA, 0.2% TritonX100, and 20 mM NaHPO4) and transferred from the assay plate to a washed streptavidin-coated 96-well scintiplate (PerkinElmer). The scintiplate was incubated at room temperature, washed in PBS with 0.1% TritonX 100, and counted in the 1450 Microbeta Trilux (Wallac, Version 2.60). Counts were recorded for each well as corrected counts per minute (CCPM). The counts were considered corrected because they were adjusted according to a P33 normalization protocol, which corrects for efficiency and background differences between the instrument detectors (software version 4.40.01).

[2] = target: T2, purified recombinant full length PKC theta (Panvera, P2996) (Homo sapiens, UniProt Q04759); assay: Radioactive kinase assay for inhibition of full length (FL) PKCθ; settings: average value
T2 construct: purified recombinant full length PKC theta (Panvera, P2996); purchased Panvera P2996
Protocol: as §1, with “The enzyme was purified recombinant active kinase domain of full length PKC theta (amino acids 362-706).” left out, “The scintiplate was incubated at room temperature, washed in PBS with 0.1% TritonX 100, and counted in the 1450 Microbeta Trilux (Wallac, Version 2.60).” left out
A Radioactive Kinase Assay for Inhibition of Full Length (FL) PKCθ Inhibitors
This assay differs from what was described above in that the enzyme used was purified recombinant full length PKC theta (Panvera, P2996).

[3] = target: T3, human PKCθ full length enzyme (Homo sapiens, UniProt Q04759); assay: PKCθ IMAP assay (fluorescence polarization); settings: human PKCθ full length enzyme, IMAP; average value; read-out: IC50 PKCθ IMAP
T3 construct: human PKCθ full length enzyme (Panvera Cat# P2996); purchased Panvera P2996
T3 sequence (Q04759 whole entry): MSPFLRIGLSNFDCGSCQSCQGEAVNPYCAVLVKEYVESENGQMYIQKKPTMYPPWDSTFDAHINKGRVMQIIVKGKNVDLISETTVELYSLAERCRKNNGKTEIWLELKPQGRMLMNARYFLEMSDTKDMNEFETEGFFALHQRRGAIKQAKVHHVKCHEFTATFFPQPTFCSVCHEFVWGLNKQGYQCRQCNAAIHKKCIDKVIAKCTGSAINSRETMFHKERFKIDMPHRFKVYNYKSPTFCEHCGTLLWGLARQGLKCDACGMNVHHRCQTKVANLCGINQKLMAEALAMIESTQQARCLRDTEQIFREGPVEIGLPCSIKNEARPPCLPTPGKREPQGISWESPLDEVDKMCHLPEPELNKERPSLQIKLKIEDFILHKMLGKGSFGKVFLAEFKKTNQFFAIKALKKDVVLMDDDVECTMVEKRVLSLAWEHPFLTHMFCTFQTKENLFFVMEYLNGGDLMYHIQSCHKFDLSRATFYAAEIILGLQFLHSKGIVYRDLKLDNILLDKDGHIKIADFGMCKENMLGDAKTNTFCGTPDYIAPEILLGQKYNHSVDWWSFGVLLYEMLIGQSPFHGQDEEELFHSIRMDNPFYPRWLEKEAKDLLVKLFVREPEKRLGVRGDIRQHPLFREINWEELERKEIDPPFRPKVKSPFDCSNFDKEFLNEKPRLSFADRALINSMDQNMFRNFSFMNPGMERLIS

T2 sequence (Q04759 whole entry): as above
T1 sequence (Q04759 362-706): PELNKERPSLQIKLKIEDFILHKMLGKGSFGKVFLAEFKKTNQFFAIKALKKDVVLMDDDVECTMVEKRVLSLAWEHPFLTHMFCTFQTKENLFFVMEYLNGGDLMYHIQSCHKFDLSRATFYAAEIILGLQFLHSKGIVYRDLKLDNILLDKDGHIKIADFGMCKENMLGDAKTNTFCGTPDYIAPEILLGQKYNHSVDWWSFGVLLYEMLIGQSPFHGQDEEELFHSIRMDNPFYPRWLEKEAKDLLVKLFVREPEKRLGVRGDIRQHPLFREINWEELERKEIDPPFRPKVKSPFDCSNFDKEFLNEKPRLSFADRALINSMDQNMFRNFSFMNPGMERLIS

Row | Compound | IC50 [1] [nM] | IC50 [2] [nM] | IC50 [3] [nM]
1 | COc1ccc(-c2cncc(C#N)c2Nc2ccc3[nH]ccc3c2)cc1OC [Compound 101, 5-(3,4-dimethoxyphenyl)-4-(1H-indol-5-ylamino)nicotinonitrile] | 140 | 83 | 140
2 | COc1ccc(-c2cncc(C#N)c2Nc2cccc3nsnc23)cc1OC [Compound 102, 4-(2,1,3-benzothiadiazol-4-ylamino)-5-(3,4-dimethoxyphenyl)nicotinonitrile] | 960 |  | 
3 | COc1ccc(-c2cncc(C#N)c2Nc2cccc3cnccc23)cc1OC [Compound 103, 5-(3,4-dimethoxyphenyl)-4-(isoquinolin-5-ylamino)nicotinonitrile] | 5680 |  | 
4 | COc1ccc(-c2cncc(C#N)c2Nc2cccc3ncccc23)cc1OC [Compound 104, 5-(3,4-dimethoxyphenyl)-4-(quinolin-5-ylamino)nicotinonitrile] | 6560 |  | 
5 | COc1ccc(-c2cncc(C#N)c2Nc2cccc3c2CCCC3)cc1OC [Compound 105, 5-(3,4-dimethoxyphenyl)-4-(5,6,7,8-tetrahydronaphthalen-1-ylamino)nicotinonitrile] | 2660 |  | 
6 | COc1ccc(-c2cncc(C#N)c2Nc2ccc3c(c2)OCCO3)cc1OC [Compound 106, 4-(2,3-dihydro-1,4-benzodioxin-6-ylamino)-5-(3,4-dimethoxyphenyl)nicotinonitrile] | 11400 |  | 
7 | COc1ccc(-c2cncc(C#N)c2Nc2ccc3cc[nH]c3c2)cc1OC [Compound 108, 5-(3,4-dimethoxyphenyl)-4-(1H-indol-6-ylamino)nicotinonitrile] | 1010 | 2250 | 450
8 | COc1ccc(-c2cncc(C#N)c2Nc2cccc3[nH]ccc23)cc1OC [Compound 109, 5-(3,4-dimethoxyphenyl)-4-(1H-indol-4-ylamino)nicotinonitrile] | 150 | 40 | 13
9 | CC(=O)Nc1ccc(-c2cccc(-c3cncc(C#N)c3Nc3ccc4[nH]ccc4c3)c2)cc1 [Compound 120, N-{3′-[5-cyano-4-(1H-indol-5-ylamino)pyridin-3-yl]biphenyl-4-yl}acetamide] |  | 120 | 230
10 | N#Cc1cncc(-c2cccc(-c3ccccc3Cl)c2)c1Nc1ccc2[nH]ccc2c1 [Compound 129, 5-(2′-chlorobiphenyl-3-yl)-4-(1H-indol-5-ylamino)nicotinonitrile] |  | 60 | 240
11 | N#Cc1cncc(-c2cccc(-c3cccc(Cl)c3)c2)c1Nc1ccc2[nH]ccc2c1 [Compound 130, 5-(3′-chlorobiphenyl-3-yl)-4-(1H-indol-5-ylamino)nicotinonitrile] |  | 80 | 160
12 | N#Cc1cncc(-c2cccc(-c3ccc(Cl)cc3)c2)c1Nc1ccc2[nH]ccc2c1 [Compound 131, 5-(4′-chlorobiphenyl-3-yl)-4-(1H-indol-5-ylamino)nicotinonitrile] |  | 50 | 120
13 | N#Cc1cncc(-c2cccc(-c3ncccn3)c2)c1Nc1ccc2[nH]ccc2c1 [Compound 138, 4-(1H-indol-5-ylamino)-5-(3-pyrimidin-2-ylphenyl)nicotinonitrile] |  | 100 | 190
14 | COCCOc1cc(-c2cncc(C#N)c2Nc2ccc3[nH]ccc3c2)ccc1OC [Compound 154, 4-(1H-indol-5-ylamino)-5-[4-methoxy-3-(2-methoxyethoxy)phenyl]nicotinonitrile] |  | 360 | 320
15 | COCCOc1ccc(-c2cncc(C#N)c2Nc2cccc3[nH]ccc23)cc1OC [Compound 159, 4-(1H-indol-4-ylamino)-5-[3-methoxy-4-(2-methoxyethoxy)phenyl]nicotinonitrile] |  | 60 | 16
16 | N#Cc1cncc(-c2cccc(OCCN3CCOCC3)c2)c1Nc1ccc2[nH]ccc2c1 [Compound 175, 4-(1H-indol-5-ylamino)-5-[3-(2-morpholin-4-ylethoxy)phenyl]nicotinonitrile] |  | 100 | 
17 | N#Cc1cncc(-c2cccc(OCc3ccccc3)c2)c1Nc1ccc2[nH]ccc2c1 [Compound 194, 5-[3-(benzyloxy)phenyl]-4-(1H-indol-5-ylamino)nicotinonitrile] |  | 50 | 
18 | N#Cc1cncc(-c2cccc(-c3ccc(C(=O)NCc4ccccc4)cc3)c2)c1Nc1ccc2[nH]ccc2c1 [Compound 204, N-benzyl-3′-[5-cyano-4-(1H-indol-5-ylamino)pyridin-3-yl]biphenyl-4-carboxamide] |  | 190 | 
19 | N#Cc1cncc(-c2cccc(-c3ccc(C(=O)N4CCOCC4)cc3)c2)c1Nc1ccc2[nH]ccc2c1 [Compound 206, 4-(1H-indol-5-ylamino)-5-[4′-(morpholin-4-ylcarbonyl)biphenyl-3-yl]nicotinonitrile] |  | 1140 | 
20 | CN1CCN(C(=O)c2ccc(-c3cccc(-c4cncc(C#N)c4Nc4ccc5[nH]ccc5c4)c3)cc2)CC1 [Compound 207, 4-(1H-indol-5-ylamino)-5-{4′-[(4-methylpiperazin-1-yl)carbonyl]biphenyl-3-yl}nicotinonitrile] |  | 530 | 
21 | COc1ccc(-c2cncc(C#N)c2Nc2cc(C)c3[nH]ccc3c2)cc1OC [Compound 217, 5-(3,4-dimethoxyphenyl)-4-[(7-methyl-1H-indol-5-yl)amino]nicotinonitrile] |  | 360 | 
22 | COc1ccc(-c2cncc(C#N)c2Oc2ccc3[nH]ccc3c2)cc1OC [Compound 220, 5-(3,4-dimethoxyphenyl)-4-(1H-indol-5-yloxy)nicotinonitrile] |  | > 20000 | 
